Measured values as given in PubChem BioAssay (NCI).
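How tested: cells in 96-well plates exposed to compound for 48 hours at five concentrations. TGI: total growth inhibition.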

Tests used:
Assay in all cases: DTP human tumour cell line panel, 48 h
SK-MEL-5 melanoma = system: SK-MEL-5 melanoma
NCI-H23 lung = system: NCI-H23 lung
SN12C renal = system: SN12C renal
OVCAR-5 ovarian = system: OVCAR-5 ovarian
UACC-257 melanoma = system: UACC-257 melanoma
HL-60(TB) leukemia = system: HL-60(TB) leukemia
RPMI-8226 leukemia = system: RPMI-8226 leukemia
NCI-H522 lung = system: NCI-H522 lung
SNB-19 CNS = system: SNB-19 CNS
HOP-92 NSCLC = system: HOP-92 NSCLC
MOLT-4 leukemia = system: MOLT-4 leukemia
K-562 leukemia = system: K-562 leukemia
A498 renal = system: A498 renal
SR leukemia = system: SR leukemia
HOP-62 NSCLC = system: HOP-62 NSCLC
HCT-15 colon = system: HCT-15 colon
SK-OV-3 ovarian = system: SK-OV-3 ovarian
CCRF-CEM leukemia = system: CCRF-CEM leukemia
UO-31 renal = system: UO-31 renal
OVCAR-3 ovarian = system: OVCAR-3 ovarian
RXF-631 renal = system: RXF-631 renal
SW-620 colon = system: SW-620 colon
CAKI-1 renal = system: CAKI-1 renal
U251 CNS = system: U251 CNS
OVCAR-4 ovarian = system: OVCAR-4 ovarian
SF-539 CNS = system: SF-539 CNS
EKVX NSCLC = system: EKVX NSCLC
A549 NSCLC = system: A549 NSCLC
M14 melanoma = system: M14 melanoma
LXFL 529 NSCLC = system: LXFL 529 NSCLC
IGROV1 ovarian = system: IGROV1 ovarian
KM20L2 colon = system: KM20L2 colon
KM12 colon = system: KM12 colon
SK-MEL-2 melanoma = system: SK-MEL-2 melanoma
COLO 205 colon = system: COLO 205 colon
RXF 393 renal = system: RXF 393 renal
HT29 colon = system: HT29 colon
HCC-2998 colon = system: HCC-2998 colon
NCI-H226 lung = system: NCI-H226 lung
ACHN renal = system: ACHN renal
OVCAR-8 ovarian = system: OVCAR-8 ovarian
SNB-75 CNS = system: SNB-75 CNS
LOX IMVI melanoma = system: LOX IMVI melanoma
DLD-1 colon = system: DLD-1 colon
SF-295 CNS = system: SF-295 CNS
SK-MEL-28 melanoma = system: SK-MEL-28 melanoma
DMS 273 small cell lung = system: DMS 273 small cell lung
DMS 114 small cell lung = system: DMS 114 small cell lung
SF-268 CNS = system: SF-268 CNS
UACC-62 melanoma = system: UACC-62 melanoma
NCI-H460 lung = system: NCI-H460 lung
MALME-3M melanoma = system: MALME-3M melanoma
SNB-78 CNS = system: SNB-78 CNS
HOP-18 NSCLC = system: HOP-18 NSCLC
XF 498 CNS = system: XF 498 CNS
TK-10 renal = system: TK-10 renal
HCT-116 colon = system: HCT-116 colon
786-0 renal = system: 786-0 renal

## CCCCCCc1cc(C(=O)Nc2ccc(Cl)cc2)nc(=S)[nH]1
SK-MEL-5 melanoma
  TGI: > 100 µM
NCI-H23 lung
  TGI: > 100 µM
SN12C renal
  TGI: > 100 µM
OVCAR-5 ovarian
  TGI: 85.8 µM
UACC-257 melanoma
  TGI: > 100 µM
HL-60(TB) leukemia
  TGI: > 100 µM
RPMI-8226 leukemia
  TGI: > 100 µM
NCI-H522 lung
  TGI: > 100 µM
SNB-19 CNS
  TGI: > 1 µM
HOP-92 NSCLC
  TGI: > 100 µM
MOLT-4 leukemia
  TGI: > 100 µM
K-562 leukemia
  TGI: > 100 µM
A498 renal
  TGI: > 1 µM
SR leukemia
  TGI: > 100 µM
HOP-62 NSCLC
  TGI: > 100 µM
HCT-15 colon
  TGI: > 1 µM
SK-OV-3 ovarian
  TGI: > 100 µM
CCRF-CEM leukemia
  TGI: > 100 µM
UO-31 renal
  TGI: > 100 µM
OVCAR-3 ovarian
  TGI: > 1 µM
RXF-631 renal
  TGI: > 100 µM
SW-620 colon
  TGI: > 100 µM
CAKI-1 renal
  TGI: > 100 µM
U251 CNS
  TGI: > 100 µM
OVCAR-4 ovarian
  TGI: > 100 µM
SF-539 CNS
  TGI: > 100 µM
EKVX NSCLC
  TGI: > 100 µM
A549 NSCLC
  TGI: > 100 µM
M14 melanoma
  TGI: > 100 µM
LXFL 529 NSCLC
  TGI: > 100 µM
IGROV1 ovarian
  TGI: > 100 µM
KM20L2 colon
  TGI: > 1 µM
KM12 colon
  TGI: > 100 µM
SK-MEL-2 melanoma
  TGI: > 100 µM

## CCOC(=O)/C(C)=C(/O)C(=O)OCC
COLO 205 colon
  TGI: > 100 µM
SK-MEL-5 melanoma
  TGI: > 100 µM
NCI-H23 lung
  TGI: > 100 µM
RXF 393 renal
  TGI: > 100 µM
SN12C renal
  TGI: > 100 µM
HT29 colon
  TGI: > 100 µM
OVCAR-5 ovarian
  TGI: > 100 µM
UACC-257 melanoma
  TGI: > 100 µM
HL-60(TB) leukemia
  TGI: > 100 µM
RPMI-8226 leukemia
  TGI: > 100 µM
NCI-H522 lung
  TGI: > 100 µM
SNB-19 CNS
  TGI: > 100 µM
HCC-2998 colon
  TGI: > 100 µM
HOP-92 NSCLC
  TGI: > 100 µM
NCI-H226 lung
  TGI: > 100 µM
MOLT-4 leukemia
  TGI: > 100 µM
K-562 leukemia
  TGI: > 100 µM
ACHN renal
  TGI: > 100 µM
A498 renal
  TGI: > 100 µM
OVCAR-8 ovarian
  TGI: > 100 µM
HOP-62 NSCLC
  TGI: > 100 µM
HCT-15 colon
  TGI: > 100 µM
SNB-75 CNS
  TGI: > 100 µM
SK-OV-3 ovarian
  TGI: > 100 µM
CCRF-CEM leukemia
  TGI: > 100 µM
LOX IMVI melanoma
  TGI: > 100 µM
UO-31 renal
  TGI: > 100 µM
OVCAR-3 ovarian
  TGI: > 100 µM
DLD-1 colon
  TGI: > 100 µM
SF-295 CNS
  TGI: > 100 µM
SK-MEL-28 melanoma
  TGI: > 100 µM
RXF-631 renal
  TGI: > 100 µM
DMS 273 small cell lung
  TGI: > 100 µM
SW-620 colon
  TGI: > 100 µM
DMS 114 small cell lung
  TGI: > 100 µM
SF-268 CNS
  TGI: > 100 µM
CAKI-1 renal
  TGI: > 100 µM
U251 CNS
  TGI: > 100 µM
OVCAR-4 ovarian
  TGI: > 100 µM
UACC-62 melanoma
  TGI: > 100 µM
SF-539 CNS
  TGI: > 100 µM
NCI-H460 lung
  TGI: > 100 µM
EKVX NSCLC
  TGI: > 100 µM
A549 NSCLC
  TGI: > 100 µM
MALME-3M melanoma
  TGI: > 100 µM
M14 melanoma
  TGI: > 100 µM
SNB-78 CNS
  TGI: > 100 µM
HOP-18 NSCLC
  TGI: > 100 µM
XF 498 CNS
  TGI: > 100 µM
LXFL 529 NSCLC
  TGI: > 100 µM
TK-10 renal
  TGI: > 100 µM
IGROV1 ovarian
  TGI: > 100 µM
HCT-116 colon
  TGI: > 100 µM
KM12 colon
  TGI: > 100 µM
SK-MEL-2 melanoma
  TGI: > 100 µM
786-0 renal
  TGI: > 100 µM
